{
  "source": "patent US9359281B2",
  "about": "“Enantiomers of 2-hydroxy derivatives of fatty acids” (UNIVERSITAT DE LES ILLES BALEARS, priority 2011, dated 2016)",
  "key": {"[1]": {"test_system": "U118 cells", "assay": "Cell growth inhibition, U118", "type": "cell-based, human", "conditions": "Homo sapiens; U118, sodium salt form", "source_text": "(§1) At this respect, concentrations which inhibit growth of tumour cells (IC50) are lower for the enantiomer S ([−]) in all studied tumour lines (Table 5). […] In all of the cases, the molecules employed were in the form of sodium salt."}, "[2]": {"test_system": "human glioma (SF767) cells", "assay": "Volume of human glioma (SF767) tumours in immuno-depressed mice", "type": "in vivo", "conditions": "for Effect: variation in the size of the tumour compared with untreated animals: 15 days", "source_text": "(§2) This example recounts the study carried out on immuno-depressed mice infected with human glioma (SF767) cells and treated for 15 days (orally) with the indicated dose (Table 3)."}, "[3]": {"test_system": "A549 cells", "assay": "Cell growth inhibition, A549", "type": "cell-based, human", "conditions": "Homo sapiens, A549, A549, sodium salt form", "source_text": "as §1"}, "[4]": {"assay": "Body weight of SHR rats", "type": "in vivo", "conditions": "600 mg/kg·day, 5 days, orally", "experimental": "C. Effect on body weight: SHR rats were treated with 2OHOA racemic (+/−) and its optic isomers [−]2OHOA and [+]2OHOA (600 mg/kg·day, 5 days, orally). […] Values of average±EEM body weight (abscises axis, n=6) are shown.\n(§3) What is more, we studied the effect of the isomers above on arterial pressure, body weight, and the level of cholesterol, triglycerides and glycemia (glucose in plasma) in SHR rats SHR (FIGS. 8B, 8C and 8D and 8E). […] Similarly, during 1 and 5 days of treatment, rats treated with the racemic loosed 11 gram of weight (approximately a 3% of their body weight), whereas animals of the group treated with enantiomer [−]2OHOA loosed 21 grams and animals of the group treated with enantiomer [+]2OHOA only loosed 7 grams of weight. On the other hand, a higher effect of enantiomer [+]2OHOA in the reduction of triglyceride (TG) and total cholesterol (CHOt) levels was observed (FIG. 8D) At this respect, plasmatic basal levels of TG in SHR rats are of 108 mg/dl and were reduced to 56 mg/dl after 2 weeks treatment […]. On the other hand, treatment with enantiomer [+]2OHOA inducted a reduction of plasmatic TG levels to 47 mg/dl, whereas enantiomer [−]2OHOA only produced a modest reduction to 81 mg/dl. In parallel, levels of CHOt were reduced from 73 mg/dl to 43 mg/dl (racemic), 36 mg/dl (enantiomer [+]2OHOA) and 59 mg/dl (enantiomer [−]2OHOA), respectively."}, "[5]": {"test_system": "human lung cancer cells (A549)", "assay": "Volume of tumours derived from human lung cancer cells (A549) in mice", "type": "in vivo", "conditions": "600 mg/kg·day, 15 days, orally", "experimental": "A. Effect on the volume of tumours derived from human lung cancer cells (A549): immuno-depressed mice were infected with human lung cancer cells and 7 days later (when the tumours were observable), treatments started with vehicle (control), 2OHOA racemic (+/−), and optic isomers [−]2OHOA and [+]2OHOA (600 mg/kg·day, 15 days, orally). The bars correspond to values of an average±EEM (n=3-5) of the increase in volume (mm^3) of the tumours (n=6).\nOn the other hand, we investigated the antitumoral activity of these compounds in different types of human cancer (see Tables 2, 4 and 5). […] Furthermore, the activity of these enantiomers was proven against a vast variety of human cancers of different nature, since it can be stated that enantiomers [−] of 2-hydroxylated fatty acids have a high potency in the treatment of any type of cancer."}, "[6]": {"test_system": "A375 cells", "assay": "Cell growth inhibition, A375", "type": "cell-based, human", "conditions": "Homo sapiens, A-375; A375, sodium salt form", "source_text": "as §1"}, "[7]": {"test_system": "SF767 cells", "assay": "Cell growth inhibition, SF767", "type": "cell-based, human", "conditions": "Homo sapiens; SF767, sodium salt form", "source_text": "as §1"}, "[8]": {"test_system": "MRC-5 cells", "assay": "Cell growth inhibition, MRC-5", "type": "cell-based, human", "conditions": "Homo sapiens, MRC5; MRC-5 non tumor fibroblast, sodium salt form", "source_text": "as §1"}, "[9]": {"assay": "Plasmatic glucose levels in SHR rats", "type": "in vivo", "conditions": "600 mg/kg, 12 h, 15 days, by mouth", "experimental": "E. Effects on […] (plasmatic glucose levels): SHR rats were treated with vehicle (control), racemic 2OHOA and their optical isomers [−] 2OHOA and [+]2OHOA (600 mg/kg, 12 h, 15 days, by mouth). The racemic compound and the [−]\nas §3"}, "[10]": {"assay": "Triglyceride and total cholesterol levels in SHR rats", "type": "in vivo", "conditions": "600 mg/kg every 12 h, 15 days, orally, basal 73 mg/dl", "experimental": "D. Effects on cholesterol and triglyceride levels: SHR rats were treated with 2OHOA racemic (+/−) and its optic isomers [−]2OHOA and [+]2OHOA (600 mg/kg every 12 h, 15 days, orally). […] Values of average±EEM seric levels of lipids expressed as mg/dl (ordinate axis; n=6) are shown.\nas §3"}, "[11]": {"test_system": "MDA-MB-231 cells", "assay": "Cell growth inhibition, MDA-MB-231", "type": "cell-based, human", "conditions": "Homo sapiens; MDA-MB-231, sodium salt form", "source_text": "as §1"}, "[12]": {"assay": "Toxicity and side effects (symptoms) in treated tumour-bearing mice", "type": "in vivo", "conditions": "for Toxicity: symptoms registered / Toxicity: Behaviour symptoms, percentage of animals / Toxicity: Diarrhoea, percentage of animals: 15 days", "source_text": "as §2"}, "[13]": {"test_system": "HT29 cells", "assay": "Cell growth inhibition, HT29", "type": "cell-based, human", "conditions": "Homo sapiens, HT-29; HT29, sodium salt form", "source_text": "as §1"}, "[14]": {"test_system": "Jurkat cells", "assay": "Cell growth inhibition, Jurkat", "type": "cell-based, human", "conditions": "Homo sapiens, sodium salt form", "source_text": "as §1"}, "[15]": {"test_system": "U937 cells", "assay": "Cell growth inhibition, U937", "type": "cell-based, human", "conditions": "Homo sapiens, U-937; U937, sodium salt form", "source_text": "as §1"}, "[16]": {"test_system": "U87 cells", "assay": "Cell growth inhibition, U87", "type": "cell-based, human", "conditions": "Homo sapiens, U-87 MG; U87, sodium salt form", "source_text": "as §1"}},
  "data": [
    {"compound": "CCCCCCCC/C=C\\CCCCCCC(O)C(=O)O", "note": "(racemic) [2OHOA, 2-hydroxyoleic acid]", "values": [
      {"measurement": "IC50", "setting": "[1]", "value": 142, "unit": "µM"},
      {"measurement": "Effect: variation in the size of the tumour compared with untreated animals", "setting": "[2]; 50 mg/kg orally", "value": "+2%"},
      {"measurement": "Effect: variation in the size of the tumour compared with untreated animals", "setting": "[2]; 75 mg/kg orally", "value": "−7", "unit": "%"},
      {"measurement": "Effect: variation in the size of the tumour compared with untreated animals", "setting": "[2]; 100 mg/kg orally", "value": "−8", "unit": "%"},
      {"measurement": "Effect: variation in the size of the tumour compared with untreated animals", "setting": "[2]; 150 mg/kg orally", "value": "−17", "unit": "%"},
      {"measurement": "Effect: variation in the size of the tumour compared with untreated animals", "setting": "[2]; 200 mg/kg orally", "value": "−23", "unit": "%"},
      {"measurement": "decrease in the volume of the tumour", "setting": "[2]; 200 mg/kg, 15 days orally", "value": 23, "unit": "%"},
      {"measurement": "Effect: variation in the size of the tumour compared with untreated animals", "setting": "[2]; 400 mg/kg orally", "value": "−39", "unit": "%"},
      {"measurement": "Effect: variation in the size of the tumour compared with untreated animals", "setting": "[2]; 600 mg/kg orally", "value": "−37", "unit": "%"},
      {"measurement": "IC50", "setting": "[3]", "value": "94.1 ± 8.8", "unit": "µM"},
      {"measurement": "loss of body weight", "setting": "[4]", "value": 11, "unit": "gram"},
      {"measurement": "loss of body weight as share of body weight", "setting": "[4]", "value": "~3", "unit": "%"},
      {"measurement": "volume of tumours derived from A549 cells", "setting": "[5]", "value": "significant reductions"},
      {"measurement": "IC50", "setting": "[6]", "value": 273, "unit": "µM"},
      {"measurement": "IC50", "setting": "[7]", "value": 215, "unit": "µM"},
      {"measurement": "IC50", "setting": "[8]", "value": "> 5000", "unit": "µM"},
      {"measurement": "plasma glucose levels (glycemia)", "setting": "[9]", "value": "significant reductions"},
      {"measurement": "CHOt levels after treatment", "setting": "[10]", "value": 43, "unit": "mg/dL"},
      {"measurement": "IC50", "setting": "[11]", "value": 244, "unit": "µM"},
      {"measurement": "Toxicity: symptoms registered", "setting": "[12]; 50 mg/kg orally", "value": "No"},
      {"measurement": "Toxicity: symptoms registered", "setting": "[12]; 75 mg/kg orally", "value": "No"},
      {"measurement": "Toxicity: symptoms registered", "setting": "[12]; 100 mg/kg orally", "value": "No"},
      {"measurement": "Toxicity: symptoms registered", "setting": "[12]; 150 mg/kg orally", "value": "No"},
      {"measurement": "Toxicity: Behaviour symptoms, percentage of animals", "setting": "[12]; 200 mg/kg orally", "value": "Behaviour 16%"},
      {"measurement": "Toxicity: Diarrhoea, percentage of animals", "setting": "[12]; 200 mg/kg orally", "value": "Diarrhoea 16%"},
      {"measurement": "Toxicity: Behaviour symptoms, percentage of animals", "setting": "[12]; 400 mg/kg orally", "value": "Behaviour 16%"},
      {"measurement": "Toxicity: Diarrhoea, percentage of animals", "setting": "[12]; 400 mg/kg orally", "value": "Diarrhoea 32%"},
      {"measurement": "Toxicity: Behaviour symptoms, percentage of animals", "setting": "[12]; 600 mg/kg orally", "value": "Behaviour 50%"},
      {"measurement": "Toxicity: Diarrhoea, percentage of animals", "setting": "[12]; 600 mg/kg orally", "value": "Diarrhoea 50%"},
      {"measurement": "side effects", "setting": "[12]; 600 mg/kg, 15 days orally", "value": "important side effects"},
      {"measurement": "IC50", "setting": "[13]", "value": 225, "unit": "µM"},
      {"measurement": "IC50", "setting": "[14]", "value": 62.9, "unit": "µM"},
      {"measurement": "IC50", "setting": "[15]", "value": 183, "unit": "µM"},
      {"measurement": "IC50", "setting": "[16]", "value": 81.6, "unit": "µM"}
    ]}
  ]
}
